Consider four compounds from patent EP3492067A1, “TYPE-17 COLLAGEN PRODUCTION PROMOTER” (Tomoike Industrial (H.K.) Limited, priority 2016, dated 2018).

≈ marks a conversion by molar mass, not a printed value.

In series [1] the test system is Type-17 collagen. To be noted: eft-400 skin model.
Description: (§1) A tissue containing DMSO was prepared as a control.
(§2) The lysates of cultured tissue were subjected to western blotting using an anti-Type-17 collagen antibody (ab95123, Abcam).
A short description of a further series: physchem. To be noted: distilled water.
In series [2] the test system is Type-17 collagen. Kind of series: Western blotting of Type-17 collagen protein production in skin model cells. Conditions: Homo sapiens, 168 h, read-out: expression amount of Type-17 collagen, increase in comparison with the control. (A western blot detects proteins with antibodies after separation by electrophoresis.)
Description: as §1, §2
A short description of series [3]: Water solubility test in distilled water.
Description: (§3) A test for confirming water solubility of the pterostilbene glycoside described above was performed. More specifically, solubility in 100 ml of distilled water at room temperature was measured. Pterostilbene (aglycone) was used as a control.

Description for physchem: as §3

The term solubility denotes how much of the substance goes into solution per volume. A lower solubility goes with a poorly soluble substance. For the compound `COc1cc(/C=C/c2ccc(O[C@@H]3O[C@H](CO)[C@@H](O[C@H]4O[C@H](CO)[C@@H](O)[C@H](O)[C@H]4O)[C@H](O)[C@H]3O)cc2)cc(OC)c1` [pterostilbene diglycoside], the “amount of Type-17 collagen contained in skin model cells, increase compared with the control (Ctrl)” value in the series with Type-17 collagen [1] is given as 1.2 times. Moreover, the solubility in the series “physchem” was roughly 13 µg/mL (≈ 22.4 µM).

For `COc1cc(/C=C/c2ccc(O[C@@H]3O[C@H](CO)[C@@H](O)[C@H](O)[C@H]3O)cc2)cc(OC)c1` [pterostilbene monoglycoside], the solubility in the series “physchem” is roughly 60 µg/mL (≈ 143 µM). In the series with Type-17 collagen [2], the fold induction at 25 µM was roughly 1.4 and the fold induction at 50 µM is roughly 1.6.

With `COc1cc(/C=C/c2ccc(O[C@@H]3O[C@H](CO)[C@@H](O[C@H]4O[C@H](CO)[C@@H](O[C@H]5O[C@H](CO)[C@@H](O)[C@H](O)[C@H]5O)[C@H](O)[C@H]4O)[C@H](O)[C@H]3O)cc2)cc(OC)c1` [pterostilbene triglycoside], the “amount of Type-17 collagen contained in skin model cells, increase compared with the control (Ctrl)” value in the series on Type-17 collagen [1] was 1.6 times. This compound came in with a solubility in the series “physchem” of roughly 300000 µg/mL (≈ 404000 µM).

Regarding `COc1cc(/C=C/c2ccc(O)cc2)cc(OC)c1` [pterostilbene, Pterostilbene], the solubility in series [3] is roughly 5 µg/mL (≈ 19.5 µM). Also, in the series on Type-17 collagen [2], the fold induction at 25 µM is roughly 1.1 and the fold induction at 50 µM is roughly 1.4.
